For series [1] the following is noted: cited from earlier work.
Series [2] has as its system Nb2-SFJCD1 rat lymphoma cells. Put plainly: Culture growth inhibition assay in Nb2-SFJCD1 cultures. The following applies: for IC50: read-out: IC50 (mM) Average ± S.D.; for growth-inhibitory effect in the presence of elevated cystine: cystine at ca. 3-fold elevated levels in the culture medium, Fig. 5. It counts as cell-based. How it is done:
Solubilization of salicylhydroxamic acid and sulfasalazine involved use of 0.1 N NaOH and adjustment of the pH to 7.5-7.7 using 1 N HCl, which was added slowly to the solution swirled by a magnetic stirrer. […] All drugs were obtained from Sigma-Aldrich Canada Ltd., Oakville, ON, Canada. Drug solutions and vehicles (controls) were prepared and assayed under subdued light conditions.
(§1) Nb2 lymphoma is of a pre-T cell origin. The parental line (Nb2 U17) is non-metastatic as subcutaneous implants whereas subline Nb2-SFJCD1 is highly metastatic. Nb2-SFJCD1 cultures (doubling time = 12 - 13 hr) were maintained in Fischer's medium (Sigma-Aldrich), supplemented with 10.0 % horse gelding serum (lactogen-deficient; one batch, ICN Biomedicals, Inc., Auroro, OH), penicillin (50 U/ml) and streptomycin (50 µg/ml). In this medium the cells grow as clumps which can be readily dispersed. Nb2 lymphoma cell lines are used by a number of laboratories; the Nb2-11 subline, is available from the European Collection of Animal Cell Cultures (ECACC) in Salisbury, U.K. The Nb2-U17 and Nb2-SJFCD1 cell lines are available from Dr. Peter W. Gout, B.C. Cancer Research Centre, Vancouver, B.C., Canada.
Nb2-SFTCD1 cells from log phase cultures were centrifaged (3.5 min at 350xg) and gently resuspended in fresh Fisher's medium containing 10% horse gelding serum. Aliquots (1.80 ml) were distributed in 12-well tissue culture plates (Linbro, Flow Laboratories, Mississauga, ON, Canada) and preincubated for 3 - 5 hours at 37°C in a water-saturated 5% CO2/air atmosphere. Solutions of the drugs (200 µl portions) were then added to the cultures for a 45 hour incubation (Cin = 1.0x10^5 cells/ml). Cell populations were determined using an electronic counter (Coulter Electronics, Hialeah, FL).

A further series has as its system MCF-7 cells. Description: Cell proliferation of MCF-7 breast carcinoma cells. In kind it is cell-based, human. To be noted: 10 mM. The source says: (§2) The effect of sulfasalazine on cell proliferation was subsequently assessed. […] Thus, the xc^- transporter is a target for the anti-cancer actions of sulfasalazine in human breast carcinoma.
A further series relates to Nb2-U17 tumor transplant. Put plainly: Assay of tumor growth inhibition in rats. It counts as in vivo, Nb rats. The following applies: b.i.d., 7-day period. How it is done: (§3) A colony of Nb rats is maintained in the British Columbia Cancer Research Centre Vancouver, B.C., Canada. Approximately equal portions of minced Nb2-U17 tumor tissue, developed subcutaneously in a rat following injection of cultured Nb2-U17 cells, were injected by trocar subcutaneously in the nape of the neck of groups of male Nb rats (one injection per rat), that had been lightly anesthetized with isoflurane (Abbott Laboratories Ltd., Montreal, Canada). […] 2 % CMC or saline were used for controls. Drug preparation and administration were carried out under subdued light conditions. Food and water were provided ad libitum. Tumor size, body weight and general health of the rats were monitored twice a day. Tumor size was measured using calipers and expressed in grams using the formula: π/6 x length x width x height in cm. […] On necropsy the animals were examined for evidence of metastatic spread with particular attention to tissues such as kidneys, liver and spleen, the target tissues of metastatic Nb2 lymphoma cells. Tissue sections were taken for histologic analysis. Non-tumor-bearing animals were used to establish maximally tolerated dosages.

The next series deals with DoHH2 cells. Put plainly: Culture growth inhibition assay using DoHH2 cells. It counts as cell-based, human. The following applies: 1.5% FBS, 0.05 mM, at hr 45, Fig. 4. How it is done:
as §1, with “Canada. DoHH2 cell suspension cultures (doubling time ca. 20 hours) were maintained in RPMI-1640 medium (Stem Cell Technology, Vancouver, B.C., Canada) containing fetal bovine serum (5%), horse serum (5%) and antibiotics.” for “Canada.”
Assays using DoHH2 cells were similarly performed, using their maintenance medium; Cin = ca. 1.5x10^5 cells/ml (see: Kluin-Nelemans, H.C. et al. (1991) Leukemia 5:221.)

The next series deals with MDA-MB-231 cells. Put plainly: Cell proliferation of MDA-MB-231 breast carcinoma cells. It counts as cell-based, human.
Description: as §2

For series [3] the following is noted: rat, in vivo. How it is done: as §3
[4] abbreviates: as reported in the literature for patients/controls undergoing treatment with the drugs.
Where [5] appears, read: Rattus norvegicus, 45 h at 37°C, Fischer's medium containing 10.0% horse gelding serum.

Entries after “also recorded” stand apart in the source; their conditions may differ. Where two headings read alike, the source gives them in different places.

Consider `Nc1ccc(O)c(C(=O)O)c1` [5-aminosalicylic acid], for which the “Therapeutic drug levels in plasma” value in series [1] (setting [4]) was “ca. 0.01 mM”.

`CC(C)Cc1ccc(C(C)C(=O)O)cc1` (stereo not drawn) [Ibuprofen]: the inhibition at 100 µM in series [2] (Rattus norvegicus, 0.1 mM (therapeutic concentration), Fig. 1, read-out: inhibited the growth of the Nb2 cell cultures) lay in the range of 5 to 10%. Moreover, in series [2] (setting [5]), the IC50 (as a rule, the concentration at which inhibition is half-maximal) stood at 0.43 ± 0.01 mM. Moreover, the “Therapeutic drug levels in plasma” value in series [1] (in vivo) was 0.05 to 0.1 mM.

For `N[C@@H](CCC(=O)O)C(=O)[O-].[Na+]` [Monosodium glutamate], the inhibition of proliferation entry with MCF-7 cells is “to an extent similar to that observed for sulfasalazine”. Further, the “inhibition of proliferation with addition of 2-ME” value in the series on MCF-7 cells (2-ME added to the cultures) is reported as “completely negated this effect”.

Consider `CN1C(C(=O)Nc2ccccn2)=C(O)c2ccccc2S1(=O)=O` [Piroxicam], for which the inhibition at 30 µM in series [2] (Rattus norvegicus, 0.03 mM (therapeutic concentration), Fig. 1, read-out: inhibited the growth of the Nb2 cell cultures) was 5 to 10%. The IC50 in series [2] (setting [5]) worked out at 0.3 ± 0.02 mM. The “Therapeutic drug levels in plasma” value in series [1] (in vivo) is 0.015 to 0.03 mM.

Regarding `NC(=O)c1ccccc1O` [Salicylamide], the IC50 in series [2] (setting [5]) amounted to 1.34 ± 0.13 mM.

As to `O=C([O-])c1ccccc1O.[Na+]` [Salicylate, sodium, sodium salicylate], the half-maximal inhibitory concentration (IC50) in series [2] (Rattus norvegicus, 45 h) is 1.82 ± 0.12 mM. Also, the inhibition at 3000 µM in series [2] (Rattus norvegicus, read-out: inhibited the growth of the Nb2 cell cultures) is roughly 70%. The “growth-inhibitory effect in the presence of elevated cystine” value in series [2] was “only marginally affected”. Besides, the tumor growth inhibition result in the series with Nb2-U17 tumor transplant (i.p. 150 mg/kg body wt, 150 mg/kg) is listed as “did not inhibit tumor growth; also recorded: had no effect”. For the same compound, the “Therapeutic drug levels in plasma” value in series [1] (setting [4]) was 1 to 3 mM.

Consider `O=C(O)c1cc(/N=N/c2ccc(S(=O)(=O)Nc3ccccn3)cc2)ccc1O` [Sulfasalazine], for which the growth arrest result in series [2] (0.15 mM, 45 hour experiment) is “only partially arrested growth”. In addition, the IC50 in series [2] (setting [5]) is roughly 0.17 mM; with MDA-MB-231 cells (Homo sapiens, MDA-MB-231) it was 300 ± 5 µM. Also, in series [2], the “growth-inhibitory effect in the presence of elevated cystine” value was “substantially reduced”. Moreover, the growth-inhibitory activity result in series [2] (range 0.1 - 0.3 mM, Fig. 2) is recorded as “highly potent”. Also, in the series with DoHH2 cells, the cell lysis result is “extensive cell lysis”. The lymphoma growth-inhibitory effect result in the series with Nb2-U17 tumor transplant (oral administration, 500 mg/kg body wt) is recorded as “only minor lymphoma growth-inhibitory effect”. Further, the “antagonism of the inhibitory actions by 2-ME” value with MDA-MB-231 cells (2-ME (60µM)) is “completely antagonized”. In series [3], the “side effects (general health and appearance)” value is “no major side effects”. Besides, the minor side effect result in series [3] (ip) is on record as “thickening of tissue at the site of the injections”. The “Therapeutic drug levels in plasma” value in series [1] (setting [4]) was 0.08 to 0.2 mM.

In the case of `Nc1ccc(S(=O)(=O)Nc2ccccn2)cc1` [sulfapyridine], the “Therapeutic drug levels in plasma” value in series [1] (setting [4]) was 0.08 to 0.2 mM.

The record behind these values is EP1278521B1, “N-HETEROCYCLIC SUBSTITUTED SALICYLATES FOR THE TREATMENT OF CANCER” (priority 2000, dated 2001).
